# Data as given in patent US20230255906A1, “Targeting Serpin B9 in Cancer” (The Brigham and Women`s Hospital, Inc., priority 2020, published 2023).
# Test system: B16 melanoma cells
# Experiment: Caspase-3 activity assay (EnzChek Caspase-3 Assay Kit), caspase-3 induction in tumor cells; also: test concentration or dose not given here
# Assay type: cell-based, mouse
# Details: not given
# Method in brief: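 B16 melanoma cells exposed to compounds for 24 h, lysed on ice 30 min, and lysate incubated with Z-DEVD-R110 substrate about 30 min at room temperature. Fluorescence read at ~496/520 nm against untreated-cell and no-enzyme controls; caspase-3 induction serves as surrogate for GrB activity from Sb9 inhibition.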
row,SMILES,Ratio of caspase-3 activity to Formula (III)
1,"CC(NC(=O)c1ccc2oc(-c3cccc(F)c3)nc2c1)c1ncn[nH]1 (stereo not drawn) [2-(3-fluorophenyl)-N-[1-(1H-1,2,4-triazol-5-yl)ethyl]-1,3-benzoxazole-5-carboxamide]",0.1158
2,"COC(=O)C1CCN(C(=O)c2ccc3nc(-c4cccc(OC)c4)oc3c2)CC1 [methyl 1-{[2-(3-methoxyphenyl)-1,3-benzoxazol-6-yl]carbonyl}-4-piperidinecarboxylate]",0.1376
3,"CCn1ccnc1CN(C)C(=O)c1ccc2nc(-c3cccc(OC)c3)oc2c1 [N-[(1-ethyl-1H-imidazol-2-yl)methyl]-2-(3-methoxyphenyl)-N-methyl-1,3-benzoxazole-6-carboxamide]",1.071
4,"O=C1CN(C(=O)c2ccc3oc(-c4ccc(C(F)(F)F)cc4)nc3c2)CCN1 [4-({2-[4-(trifluoromethyl)phenyl]-1,3-benzoxazol-5-yl}carbonyl)-2-piperazinone]",1.698
5,"O=C(NC1C=CS(=O)(=O)C1)c1ccc2oc(-c3cccc(F)c3)nc2c1 (stereo not drawn) [N-(1,1-dioxido-2,3-dihydro-3-thienyl)-2-(3-fluorophenyl)-1,3-benzoxazole-5-carboxamide]",0.09701
6,"Cc1c[nH]c(CN(C)C(=O)c2ccc3oc(-c4ccc(C(F)(F)F)cc4)nc3c2)n1 [N-methyl-N-[(4-methyl-1H-imidazol-2-yl)methyl]-2-[4-(trifluoromethyl)phenyl]-1,3-benzoxazole-5-carboxamide]",0.1327
7,"CCN(CCn1cccn1)C(=O)c1ccc2nc(-c3cccc(OC)c3)oc2c1 [N-ethyl-2-(3-methoxyphenyl)-N-[2-(1H-pyrazol-1-yl)ethyl]-1,3-benzoxazole-6-carboxamide]",0.1363
8,"O=C(c1ccc2nc(-c3ccccc3)oc2c1)N1C[C@@H](F)C[C@H]1CO [[(2S,4S)-4-fluoro-1-(2-phenyl-1,3-benzoxazole-6-carbonyl)pyrrolidin-2-yl]methanol]",0.09723
9,"O=C(NC1CCC1)c1ccc2oc(-c3ccc(C(F)(F)F)cc3)nc2c1 [N-cyclobutyl-2-[4-(trifluoromethyl)phenyl]-1,3-benzoxazole-5-carboxamide]",1.28
10,"CCn1ccnc1CN(C)C(=O)c1ccc2oc(-c3ccc(C(F)(F)F)cc3)nc2c1 [N-[(1-ethyl-1H-imidazol-2-yl)methyl]-N-methyl-2-[4-(trifluoromethyl)phenyl]-1,3-benzoxazole-5-carboxamide]",0.1566
11,"Cc1nc(CNC(=O)c2ccc3oc(-c4cccc(F)c4)nc3c2)cs1 [2-(3-fluorophenyl)-N-[(2-methyl-1,3-thiazol-4-yl)methyl]-1,3-benzoxazole-5-carboxamide]",0.09788
12,"O=C(NCc1cccnc1)c1ccc2oc(-c3cccc(F)c3)nc2c1 [2-(3-fluorophenyl)-N-(3-pyridinylmethyl)-1,3-benzoxazole-5-carboxamide]",0.1077
13,"Cn1cnnc1CCNC(=O)c1ccc2oc(-c3cccc(F)c3)nc2c1 [2-(3-fluorophenyl)-N-[2-(4-methyl-4H-1,2,4-triazol-3-yl)ethyl]-1,3-benzoxazole-5-carboxamide]",0.7133
14,"COc1cccc(-c2nc3ccc(C(=O)N(CC4CC4)CC4CCCO4)cc3o2)c1 (stereo not drawn) [N-(cyclopropylmethyl)-2-(3-methoxyphenyl)-N-(tetrahydro-2-furanylmethyl)-1,3-benzoxazole-6-carboxamide]",0.1369
15,"COCC1CCN(C(=O)c2ccc3oc(-c4ccc(C(F)(F)F)cc4)nc3c2)C1 (stereo not drawn) [5-{[3-(methoxymethyl)-1-pyrrolidinyl]carbonyl}-2-[4-(trifluoromethyl)phenyl]-1,3-benzoxazole]",0.1424
16,"CN(CCN1CCOCC1)C(=O)c1ccc2oc(-c3ccc(C(F)(F)F)cc3)nc2c1 [N-methyl-N-[2-(4-morpholinyl)ethyl]-2-[4-(trifluoromethyl)phenyl]-1,3-benzoxazole-5-carboxamide]",0.1327
17,"Cn1cc(CNC(=O)c2ccc3oc(-c4cccc(F)c4)nc3c2)cn1 [2-(3-fluorophenyl)-N-[(1-methyl-1H-pyrazol-4-yl)methyl]-1,3-benzoxazole-5-carboxamide]",0.1005

# Same assay, conditions: relative to compound of Formula (III)
row,SMILES,"Caspase-3 induction, Normalized to Formula (III) (%)"
1,"CCN(C)C(=O)c1ccc2nc(-c3cc(Cl)cc(Cl)c3)oc2c1 [2-(3,5-dichlorophenyl)-N-ethyl-N-methyl-1,3-benzoxazole-6-carboxamide]",−85.6535%
2,"COc1cc(C(=O)NCC2(C)CC2)cc(OC)c1O [4-hydroxy-3,5-dimethoxy-N-[(1-methylcyclopropyl)methyl]benzamide]",−0.598%
3,COc1cc(C(=O)NCC2CCOC2)ccc1OC(C)C (stereo not drawn) [3-methoxy-N-[(oxolan-3-yl)methyl]-4-(propan-2-yloxy)benzamide],−2.673%
4,"Cc1cc(O)c(O)cc1C(=O)NC1CCCC1 [N-cyclopentyl-4,5-dihydroxy-2-methylbenzamide]",−66.5183%
5,"O=C(NCc1ccccc1)c1ccc2nc(C3CC3)oc2c1 [N-benzyl-2-cyclopropyl-1,3-benzoxazole-6-carboxamide]",−32.882%
6,"O=C(c1cc2c(cc1O)OCO2)N1CCCC1 [6-(pyrrolidine-1-carbonyl)-2H-1,3-benzodioxol-5-ol]",−35.7785%
7,CCOc1ccc(C(=O)N(C)CC)cc1O [4-ethoxy-N-ethyl-3-hydroxy-N-methylbenzamide],−69.889%
8,"CN(C)c1nc2c(C(=O)N3CCCC3)cccc2o1 [N,N-dimethyl-4-(pyrrolidine-1-carbonyl)-1,3-benzoxazol-2-amine]",−22.9856%
9,CCOc1ccc(C(=O)NCCCOC)cc1O [4-ethoxy-3-hydroxy-N-(3-methoxypropyl)benzamide],−35.6816%
10,"Cc1nc2c(C(=O)NCc3ccccc3)cccc2o1 [N-benzyl-2-methyl-1,3-benzoxazole-4-carboxamide]",−46.2057%
11,"COc1cc(C(=O)NCc2ccccc2)cc(OC)c1O [N-benzyl-4-hydroxy-3,5-dimethoxybenzamide]",−17.7065%
12,"COc1cc(C(=O)NC2CCCC2)cc(OC)c1O [N-cyclopentyl-4-hydroxy-3,5-dimethoxybenzamide]",−24.5783%
13,"COCCCNC(=O)c1cccc2oc(C)nc12 [N-(3-methoxypropyl)-2-methyl-1,3-benzoxazole-4-carboxamide]",−70.4086%
14,"COCCCNC(=O)c1ccc2nc(C3CCCO3)oc2c1 (stereo not drawn) [N-(3-methoxypropyl)-2-(oxolan-2-yl)-1,3-benzoxazole-6-carboxamide]",−69.878%
15,"CCN(C)C(=O)c1ccc2nc(C3CC3)oc2c1 [2-cyclopropyl-N-ethyl-N-methyl-1,3-benzoxazole-6-carboxamide]",33.9690%
16,"COc1cc(Br)c(C(=O)NCC(C)C)cc1OC [2-bromo-4,5-dimethoxy-N-(2-methylpropyl)benzamide]",−58.9646%
